The results in this text go back to patent publication US20090306207A1, “Treatment of Drug-Resistant Proliferative Disorders” (priority 2005, published 2009).

Bounds are passed on as bounds.

In data set [1] the test system is 32Dcl3 cells transfected to express wild-type or imatinib-resistant forms of BCR-ABL. The experiment in a line: Growth inhibition of the panel of cells expressing wild-type or imatinib-resistant forms of BCR-ABL. Format: cell-based, murine.
Protocol: (§2) The expression of the BCR-ABL proteins was determined by Western blot and kinase assays.
(§3) The total number of viable cells was determined by trypan blue exclusion at 72 hours post-treatment. The percent viable cells compared to vehicle-treated controls was determined.
(§4) The wild type comprises 32Dcl3.BCR-ABL cells that ectopically expressed the wild-type p210^BCR-ABL oncoprotein. The total number of viable cells was determined by trypan blue exclusion at 72 hours post-treatment. The percent viable cells compared to vehicle-treated controls was determined.
In data set [2] the test system is 32Dcl3.BCR-ABL cells expressing wild-type p210 BCR-ABL. The experiment in a line: Cell viability (trypan blue exclusion), cells expressing wild-type BCR-ABL. The following applies: for GI50: Mus musculus, 72 hours. Format: cell-based, murine. As to the method: (§1) Cell viability was then determined by trypan blue exclusion.
Cells expressing the wild-type p210^BCA-ABL oncoprotein (32Dcl3.BCR-ABL) or the BCR-ABL mutations G250E, T315I or M351T, were incubated with varying concentrations of Compound 4 ((E)-1-(2-(4-bromobenzylsulfonyl)vinyl)-2,4-difluorobenzene).

The test system of data set [3] is 32Dcl3 cells expressing BCR-ABL F317L. The experiment in a line: Cell viability (trypan blue exclusion), BCR-ABL F317L cells. Format: cell-based, murine. The following applies: Mus musculus, 72 hours.
The test system of data set [4] is 32Dcl3 cells expressing BCR-ABL H396R. The experiment in a line: Cell viability (trypan blue exclusion), BCR-ABL H396R cells. Format: cell-based, murine. The conditions noted are these: Mus musculus, 72 hours.
For data set [5], the system named is 32Dcl3 cells expressing BCR-ABL M351T. The experiment in a line: Cell viability (trypan blue exclusion), BCR-ABL M351T cells. The conditions noted are these: Mus musculus, 72 hours. Format: cell-based, murine.
For data set [6], the system named is 32Dcl3 cells expressing BCR-ABL H396P. As to the kind of experiment: Cell viability (trypan blue exclusion), BCR-ABL H396P cells. The following applies: Mus musculus, 72 hours. Format: cell-based, murine.
The test system of data set [7] is 32Dcl3 cells expressing BCR-ABL Y253H. The experiment in a line: Cell viability (trypan blue exclusion), BCR-ABL Y253H cells. The following applies: Mus musculus, 72 hours. Format: cell-based, murine.
Data set [8] relates to 32Dcl3 cells expressing BCR-ABL M244V. As to the kind of experiment: Cell viability (trypan blue exclusion), BCR-ABL M244V cells. Format: cell-based, murine. The following applies: Mus musculus, 72 hours.
Data set [9] deals with 32Dcl3 cells expressing BCR-ABL E355G. The experiment in a line: Cell viability (trypan blue exclusion), BCR-ABL E355G cells. Format: cell-based, murine. The following applies: Mus musculus, 72 hours.
Data set [10] deals with 32Dcl3 cells expressing BCR-ABL F359V. As to the kind of experiment: Cell viability (trypan blue exclusion), BCR-ABL F359V cells. The conditions noted are these: Mus musculus, 72 hours. Format: cell-based, murine.
Data set [11] has as its system 32Dcl3 cells expressing BCR-ABL Q252H. The experiment in a line: Cell viability (trypan blue exclusion), BCR-ABL Q252H cells. The conditions noted are these: 72 hours. Format: cell-based, murine.
The test system of a further data set is CML K562 cells. The experiment in a line: Cell viability (trypan blue exclusion), K562 cells. Format: cell-based. As to the method: K562 cells were maintained in RPMI (Roswell Park Memorial Institute) medium supplemented with 10% FBS and 1 U/ml penicillin-streptomycin.
as §1

A further data set deals with 32D/BCR-ABL^T315I cells. As to the kind of experiment: In vivo growth of cells expressing imatinib-resistant BCR-ABL T315I (blood smears). The conditions noted are these: 100 mg/kg daily intraperitoneal; days 7 and 14; compared to vehicle and imatinib treated groups. Details: species or system athymic nude mice. As to the method:
Blood smears on the treated mice were performed 7 and 14 days after the start of treatments. One drop of blood from each mouse was smeared onto glass slides, air dried and stained with modified Wright stain (Sigma). The T315I cells in the blood were easily visible due to their blue staining and size difference. The number of T315I cells per 10 fields was determined by counting 10 fields of view containing an equal density of red blood cells using a 40× objective on an upright Olympus microscope.

The test system of another data set is normal bone marrow cells. As to the kind of experiment: Hematopoietic colony formation assay. The conditions noted are these: 100 mg/kg intravenous; bone marrow cells extracted after 24 hrs. Format: in vivo, CD-1 mice. As to the method: To examine the effects of Compound 1 on normal hematopoietic cell population in vivo, a dose of 100 mg/kg of this compound in normal saline (or saline alone as a control) was injected intravenously (tail vein injection) into CD-1 mice (10 animals per group). The effect on the in vitro hematopoietic colony formation of normal bone marrow cells derived from these mice was determined 24 hrs following administration. Bone marrow cells were extracted from the mice after 24 hrs and 2×10^5 cells were plated on methylcellulose containing appropriate cytokines for lineage specific colony formation. Colonies were counted after 5 to 14 days of incubation.

Data set [12] deals with 32Dcl3 cells expressing BCR-ABL G250E. As to the kind of experiment: Cell viability (trypan blue exclusion), BCR-ABL G250E cells.
Protocol: (§5) Mutations corresponding to those published in the literature (Shah et al., Oncogene, 22, 7389-7395 (2003)) were introduced into the bcr-abl cDNA, which was then introduced into actively proliferating 32Dcl3 cells (Rovera et al., Oncogene 1, 29-35 (1987)) according to the following procedure.
as §2
(§6) Transfectants were selected in the absence of IL-3.
as §3, §4
The subject of data set [13] is 32Dcl3 cells expressing BCR-ABL Y253F. The experiment in a line: Cell viability (trypan blue exclusion), BCR-ABL Y253F cells.
Protocol: as §5, §2, §6, §3, §4
In data set [14] the test system is 32Dcl3 cells expressing BCR-ABL F311L. The experiment in a line: Cell viability (trypan blue exclusion), BCR-ABL F311L cells.
Protocol: as §5, §2, §6, §3, §4
Data set [15] relates to 32Dcl3 cells expressing BCR-ABL T315I. The experiment in a line: Cell viability (trypan blue exclusion), BCR-ABL T315I cells.
Protocol: as §5, §2, §6, §3, §4
Data set [16] has as its system 32Dcl3 cells expressing BCR-ABL E255V. The experiment in a line: Cell viability (trypan blue exclusion), BCR-ABL E255V cells.
Protocol: as §5, §2, §6, §3, §4
Data set [17] concerns 32Dcl3 cells expressing BCR-ABL L387M. As to the kind of experiment: Cell viability (trypan blue exclusion), BCR-ABL L387M cells.
Protocol: as §2, §6, §3, §4
In data set [18] the test system is 32Dcl3 cells expressing BCR-ABL E255K. The experiment in a line: Cell viability (trypan blue exclusion), BCR-ABL E255K cells.
Protocol: as §2, §6, §3, §4
A short description of data set [19]: Toxicity in treated mice (body weight, signs). The conditions noted are these: 100 mg/kg daily intraperitoneal for 10 days. As to the method:
Female athymic nude mice (ncr/ncr) were injected intravenously with 1×10^6 32Dcl3 cells expressing the mutant BCR-ABL^T315I via the tail vein.
Body weights of the test animals were taken every two days.

Consider `O=S(=O)(/C=C/c1ccc(F)cc1F)Cc1ccc(Br)cc1` [Compound 4, (E)-1-(2-(4-bromobenzylsulfonyl)vinyl)-2,4-difluorobenzene], for which the “sensitivity to growth-inhibitory activity” value in data set [1] (wild-type, G250E, T315I or M351T, varying concentrations, 72 hours) is “sensitive”.
In general, GI50 refers to the concentration that inhibits growth by half. A higher GI50 goes with less potent growth inhibition. Regarding `COc1cc(OC)c(/C=C/S(=O)(=O)Cc2ccc(OC)c(NC(C)C(=O)O)c2)c(OC)c1` (centres unmarked) [Compound 1, (E)-2-(5-((2,4,6-trimethoxystyrylsulfonyl)methyl)-2-methoxyphenylamino) propanoic acid], the “LD50 (loss of viability)” value fell in the range of 10 to 15 nM in [2] (32Dcl3.BCR-ABL cells, 72 hours incubation) and 10 to 15 nM with CML K562 cells (K562 cells, 72 hours incubation). Further, the GI50 in [2] (None (wt), trypan blue exclusion) worked out at 10 nM; in data set [3], 7.8 nM; in data set [4] it was 6.8 nM; in data set [5], 7.8 nM; in [6] it was 7.9 nM; in [7], 7.8 nM. The figures for the GI50 in data set [8], in [9] and in data set [10] were 7.8 nM, 7.8 nM and 7.1 nM, respectively. The LD50 in data set [11] is 7.0 nM; in data set [12] (G250E, 72 hours) it was 5.9 nM; in data set [13] (72 hours), 6.8 nM; in data set [14] (F311L, 72 hours), 6.8 nM; in [15] (T315I, 72 hours), 7.5 nM; in data set [16] (E255V, 72 hours), 7.8 nM. Further, the LD50 in [17] (L387M, 72 hours) stood at 7.1 nM; in [18] (E255K, 72 hours), 8.4 nM. Moreover, the “concentration inhibiting proliferation, fold less than that shown for imatinib” value with CML K562 cells (BCR-ABL+ cell lines (K562 and 32Dcl3.BCR-ABL)) turned out to be 10 fold. In addition, the “number of T315I cells in the blood” value in the data set with 32D/BCR-ABL^T315I cells is listed as “significantly reduced”. The “colony formation of the erythroid, myeloid or lymphoid lineages” value in the data set on normal bone marrow cells is “No reduction in colony formation”. Also, in [1] (all transfected cell lines, including T315I mutant, various concentrations, 72 hours), the “sensitivity to growth inhibitory activity” value is listed as “extremely sensitive”.
Regarding `Cc1ccc(NC(=O)c2ccc(CN3CCN(C)CC3)cc2)cc1Nc1nccc(-c2cccnc2)n1` [imatinib, Imatinib], the loss of bodyweight in [19] is on record as more than 20%.
On to `COc1cc(OC)c(/C=C/S(=O)(=O)Cc2ccc(OC)c(NCC(=O)O)c2)c(OC)c1` [Compound 2, (E)-2-(5-((2,4,6-trimethoxystyrylsulfonyl)methyl)-2-methoxyphenylamino) acetic acid], for which, in [1] (cell lines listed in Table 2, 250 nM), the “sensitivity to growth-inhibitory activity” value is “sensitive”.
Turning to `COc1cc(OC)c(/C=C/S(=O)(=O)Cc2ccc(OC)c(NC(C)(C)C(=O)O)c2)c(OC)c1` [Compound 3, (E)-2-(5-((2,4,6-trimethoxystyryl-sulfonyl)methyl)-2-methoxyphenylamino)-2-methylpropanoic acid], the GI50 is 40 nM in [2] (Wild-type); 60 nM in data set [3]; 60 nM in data set [4]; 60 nM in data set [5]; 50 nM in data set [6]; 30 nM in data set [7]. Also, the GI50 was determined as 50 nM in data set [9]; 70 nM in data set [10]; 40 nM in data set [11] (Mus musculus); 25 nM in [12] (Mus musculus, 72 h); 70 nM in [13] (72 hours); 40 nM in data set [13] (Mus musculus, 72 h). The GI50 in data set [14] (Mus musculus, 72 h) is 70 nM; in data set [15] (Mus musculus, 72 h) it was 60 nM; in data set [16] (Mus musculus, 72 h), 50 nM; in data set [17] (Mus musculus, 72 h), 50 nM; in [18] (Mus musculus, 72 h), 50 nM. The “sensitivity to growth-inhibitory activity” value in data set [1] (cell lines listed in Table 3, various concentrations, 72 hours) was “sensitive”.
